Assay results from patent US12624024B2, “EP2 antagonist compounds” (Reservoir Neuroscience, Inc., priority 2021, dated 2026).

Assays:
EP2 receptor = target: T1, EP2 receptor (Homo sapiens, UniProt P43116); assay: EP2 Potency Assay (cAMP TR-FRET, CHO-K1 cells transfected with EP2 receptor, PGE2 at EC80); assay type: cell-based; settings: CHO-K1 cells expressing EP2, prostaglandin E2 at EC80, read-out: EP2 Potency (IC50 category)
T1 construct: expressed in transfected cells; host or cells: CHO-K1 cells (ATCC), transient transfection with FuGENE 6
T1 sequence (P43116 whole entry): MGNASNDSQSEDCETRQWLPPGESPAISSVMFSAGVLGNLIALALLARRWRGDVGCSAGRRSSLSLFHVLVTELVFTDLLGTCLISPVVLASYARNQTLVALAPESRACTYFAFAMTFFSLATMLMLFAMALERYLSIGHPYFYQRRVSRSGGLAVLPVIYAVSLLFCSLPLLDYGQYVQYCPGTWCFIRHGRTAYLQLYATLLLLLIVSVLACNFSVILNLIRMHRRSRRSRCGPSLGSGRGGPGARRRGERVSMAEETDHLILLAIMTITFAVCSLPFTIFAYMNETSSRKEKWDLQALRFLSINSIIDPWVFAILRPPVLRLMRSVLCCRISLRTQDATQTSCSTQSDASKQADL
In short: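 CHO-K1 cells transiently transfected with EP2 and seeded 24 h after transfection. IC50 from curve fit of percent inhibition versus concentration.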

[1] = Human Liver Microsome Stability; assay type: in vitro ADME; settings: human liver microsomes 0.5 mg/mL, 37° C., 60 min; for half-life at 2 μM: read-out: T1/2 (microsomal); for microsomal CLint at 2 μM: read-out: in vitro CLint (microsomal)
Procedure: The tested compound was incubated in duplicate with human liver microsomes (0.5 mg/mL) at 37° C. These incubations were carried out at a final test article concentration of 2 μM over a total incubation period of 60 minutes. Samples were taken at 0, 15, 30, 45 and 60 min and the reaction terminated by addition of 4 volumes of acetonitrile containing internal standard (100 nM alprazolam, 200 nM imipramine, 200 nM labetalol and 2 μM ketoprofen). Diclofenac was used as a positive control in this study. The samples were analyzed by UPLC-MS/MS to determine the concentration of the test compound and the percent remaining, intrinsic clearance (in vitro CLint) and half-life (T1/2) values were calculated.
(§1) Chromatographic analyses were performed on a Shimadzu UPLC apparatus (Kyoto, Japan) consisting of a gradient pump (model LC-30AD), an automatic injector (model HTC PAL System) and an on-line degasser (model DGU-20A5R). Detection was a triple quadrupole tandem mass spectrometer equipped with a turbo ion spray interface (API 4000/Triple Quad 4500/Triple Quad 5500/Triple Quad 6500). Data acquisition and integration were carried out with LC-MS software (Analyst 1.6) linked directly to the LC-MS/MS system. Chromatographic separations were achieved on a XSelect Hss T3 2.5μ (2.1×30 mm) Column. The mobile phase was 0.1% formic acid in water (A) and 0.1% formic acid in acetonitrile (B). The flow rate was 1.0 mL/min and column was maintained at 40° C.
Half-life (T1/2) data is measured in minutes, and in Table B2, the data is grouped into categories of by the following rules: • T1/2 (microsomal): A=100+; B=50 to 100; C=20 to 50; D<20.
In vitro clearance (CLint) data is measured in μL/min/mg prot, and in Table B2, the data is grouped into categories of by the following rules: • CLint (microsomal): A<20; B=20 to 50; C=50 to 100; and D=100+.

[2] = Human Hepatocyte Stability; assay type: in vitro ADME; settings: human hepatocytes 0.5×10^6 cells/mL, 120 min; for half-life at 1 μM: read-out: T1/2 (hepatic); for microsomal CLint at 1 μM: read-out: in vitro CLint (hepatic)
Procedure: The tested compound was incubated in duplicate with incubation media (Williams' Medium E with 1× GlutaMAX) containing human hepatocytes (0.5×10^6 cells/mL). These incubations were carried out at a final test concentration of 1 μM over a total incubation period of 120 minutes. Samples were taken at 0, 15, 30, 60, 90 and 120 min and the reaction was terminated by addition of acetonitrile containing internal standard (100 nM alprazolam, 200 nM labetalol, 200 nM caffeine and 200 nM diclofenac). Verapamil was used as the positive control in this study. The samples were analyzed by UPLC-MS/MS to determine the concentration of the tested compound and the percentage remaining, intrinsic clearance (in vitro CLint) and half-life (t½) values were calculated.
as §1
Half-life (T1/2) data is measured in minutes, and in Table B2, the data is grouped into categories of by the following rules: • T1/2 (hepatic): A=200+; B=100 to 200; C=50 to 100; and D<50.
In vitro clearance (CLint) data is measured in μL/min/mg prot, and in Table B3, the data is grouped into categories of by the following rules: • CLint (microsomal): A<5; B=5 to 10; C=10 to 20; and D=20+.

SMILES	IC50 (EP2 receptor)	half-life at 2 μM [1]	microsomal CLint at 2 μM [1]	half-life at 1 μM [2]	microsomal CLint at 1 μM [2]
COc1ncc(CN2CCOc3c(Cl)cc(-n4ccc5cc(F)ccc54)cc3C2)cn1 [Compound 13]	0.1 to 0.5 µM	< 0.333 h	50 to 100 µL/min/mg		
COc1ncc(CN2CCOc3c(Cl)cc(-n4ccc5c(F)c(F)ccc54)cc3C2)cn1 [Compound 25]	0.1 to 0.5 µM			1.67 to 3.33 h	10 to 20 µL/min/mg
Cc1c(CN2CCOc3c(Cl)cc(-n4ccc5cc(F)ccc54)cc3C2)cnn1C [Compound 106, 9-chloro-4-((1,5-dimethyl-1H-pyrazol-4-yl)methyl)-7-(5-fluoro-1H-indol-1-yl)-2,3,4,5-tetrahydrobenzo[f][1,4]oxazepane]	0.5 to 1 µM	< 0.333 h	> 100 µL/min/mg		
COCc1ncc(CN2CCOc3c(Cl)cc(-n4ccc5cc(F)ccc54)cc3C2)cn1 [Compound 142]	0.1 to 0.5 µM			> 3.33 h	5 to 10 µL/min/mg
O=C(O)c1ncc(CN2CCOc3c(Cl)cc(-n4ccc5cc(F)ccc54)cc3C2)cn1 [Compound 144, 5-{[9-chloro-7-(5-fluoroindol-1-yl)-3,5-dihydro-2H-1,4-benzoxazepin-4-yl]methyl}pyrimidine-2-carboxylic acid]	< 0.1 µM			> 3.33 h	< 5 µL/min/mg
Cc1[nH]c(=O)ncc1CN1CCOc2c(Cl)cc(-n3ccc4cc(F)ccc43)cc2C1 [Compound 156]	< 0.1 µM			1.67 to 3.33 h	5 to 10 µL/min/mg
O=c1cc(CN2CCOc3c(Cl)cc(-n4ccc5cc(F)ccc54)cc3C2)cn[nH]1 [Compound 169, 5-{[9-chloro-7-(5-fluoroindol-1-yl)-3,5-dihydro-2H-1,4-benzoxazepin-4-yl]methyl}-2H-pyridazin-3-one]	< 0.1 µM			1.67 to 3.33 h	5 to 10 µL/min/mg
Nc1cnc(CN2CCOc3c(Cl)cc(-n4ccc5cc(F)ccc54)cc3C2)cn1 [Compound 170]	0.5 to 1 µM	0.333 to 0.833 h	20 to 50 µL/min/mg		
O=C(O)c1cc(CN2CCOc3c(Cl)cc(-n4ccc5cc(F)ccc54)cc3C2)ccn1 [Compound 185, 4-{[9-chloro-7-(5-fluoroindol-1-yl)-3,5-dihydro-2H-1,4-benzoxazepin-4-yl]methyl}pyridine-2-carboxylic acid]	0.1 to 0.5 µM			> 3.33 h	< 5 µL/min/mg
Fc1ccc2c(ccn2-c2cc(Cl)c3c(c2)CN(Cc2cc[nH]c(=S)c2)CCO3)c1 [Compound 189, 4-{[9-chloro-7-(5-fluoroindol-1-yl)-3,5-dihydro-2H-1,4-benzoxazepin-4-yl]methyl}-1H-pyridine-2-thione]	0.1 to 0.5 µM			0.833 to 1.67 h	> 20 µL/min/mg
Fc1ccc2c(ccn2-c2cc(Cl)c3c(c2)CN(Cc2ccnc(Cl)c2C(F)(F)F)CCO3)c1 [Compound 192]	0.1 to 0.5 µM				
O=c1[nH]ccc(CN2CCOc3c(Cl)cc(-n4ccc5cc(F)ccc54)cc3C2)c1F [Compound 193]	< 0.1 µM			0.833 to 1.67 h	10 to 20 µL/min/mg
Cc1c(CN2CCOc3c(Cl)cc(-n4ccc5cc(F)ccc54)cc3C2)cc[nH]c1=O [Compound 194, 4-{[9-chloro-7-(5-fluoroindol-1-yl)-3,5-dihydro-2H-1,4-benzoxazepin-4-yl]methyl}-3-methyl-1H-pyridin-2-one]	< 0.1 µM			1.67 to 3.33 h	10 to 20 µL/min/mg
O=c1[nH]ccc(CN2CCOc3c(Cl)cc(-n4ccc5cc(F)ccc54)cc3C2)c1C(F)(F)F [Compound 195]	> 5 µM				
COc1cc(CN2CCOc3c(Cl)cc(-n4ccc5cc(F)ccc54)cc3C2)cc(OC)n1 [Compound 197]	> 5 µM				
O=C1CC(CN2CCOc3c(Cl)cc(-n4ccc5cc(F)ccc54)cc3C2)=NN1 [Compound 198, 5-{[9-chloro-7-(5-fluoroindol-1-yl)-3,5-dihydro-2H-1,4-benzoxazepin-4-yl]methyl}-2,4-dihydropyrazol-3-one]	1 to 5 µM	0.333 to 0.833 h	50 to 100 µL/min/mg		

Results, then the compound that gave them:

IC50 (EP2 receptor)	half-life at 2 μM [1]	microsomal CLint at 2 μM [1]	half-life at 1 μM [2]	microsomal CLint at 1 μM [2]	SMILES
1 to 5 µM					O=C1NN=CC1CN1CCOc2c(Cl)cc(-n3ccc4cc(F)ccc43)cc2C1 (stereo not shown) [Compound 199]
1 to 5 µM	0.333 to 0.833 h	20 to 50 µL/min/mg			O=C1CC(CN2CCOc3c(Cl)cc(-n4ccc5cc(F)ccc54)cc3C2)CCN1 (stereo not shown) [Compound 200, 4-{[9-chloro-7-(5-fluoroindol-1-yl)-3,5-dihydro-2H-1,4-benzoxazepin-4-yl]methyl}piperidin-2-one]
0.5 to 1 µM	0.833 to 1.67 h	20 to 50 µL/min/mg			O=C1NC=C(CN2CCOc3c(Cl)cc(-n4ccc5cc(F)ccc54)cc3C2)CN1 [Compound 202]
0.1 to 0.5 µM	< 0.333 h	50 to 100 µL/min/mg			O=c1cc(CN2CCOc3c(Cl)cc(-n4ccc5cc(F)ccc54)cc3C2)cco1 [Compound 203, 4-{[9-chloro-7-(5-fluoroindol-1-yl)-3,5-dihydro-2H-1,4-benzoxazepin-4-yl]methyl}pyran-2-one]
> 5 µM					Fc1ccc2c(ccn2-c2cc(Cl)c3c(c2)CN(Cc2cncnc2)C2(CC2)CO3)c1 [Compound 218]
> 5 µM					N#Cc1cccc(CN2Cc3cc(-n4ccc5cc(F)ccc54)cc(Cl)c3OCC23CC3)c1 [Compound 220]
> 5 µM					COc1cc(CN2CCOc3c(Cl)cc(-n4ccc5cc(F)ccc54)c(C)c3C2)ccn1 [Compound 221]
> 5 µM					Fc1ccc2c(ccn2-c2cc(Cl)c3c(c2)CN(Cc2cncnc2)CC3)c1 [Compound 222]
> 5 µM					COc1ncccc1CN1CCc2c(Cl)cc(-n3ccc4cc(F)ccc43)cc2C1 [Compound 223]
> 5 µM					COc1cc(CN2CCOc3c(Cl)cc(-n4ccc5cc(F)ccc54)cc32)ccn1 [Compound 224]
0.1 to 0.5 µM					[2H]C1([2H])c2cc(-n3ccc4cc(F)ccc43)cc(Cl)c2OC([2H])([2H])C([2H])([2H])N1Cc1cc[nH]c(=O)c1 [Compound 225]
0.1 to 0.5 µM					[2H]C1([2H])c2cc(-n3ccc4cc(F)ccc43)cc(Cl)c2OCCN1Cc1cc[nH]c(=O)c1 [Compound 226]
< 0.1 µM					[2H]C1([2H])Oc2c(Cl)cc(-n3ccc4cc(F)ccc43)cc2CN(Cc2cc[nH]c(=O)c2)C1([2H])[2H] [Compound 227]
> 5 µM					CC(c1cc[nH]c(=O)c1)N1CCOc2c(Cl)cc(-n3ccc4cc(F)ccc43)cc2C1 (stereo not shown) [Compound 228]
> 5 µM					O=c1cc(CN2Cc3cc(-n4ccc5cc(F)ccc54)cc(Cl)c3OCC23COC3)cc[nH]1 [Compound 229]
> 5 µM					O=c1cc(CN2Cc3cc(-n4ccc5cc(F)ccc54)cc(Cl)c3OCC23CC3)cc[nH]1 [Compound 230]
> 5 µM					O=c1cc(CN2Cc3cc(-n4ccc5cc(F)ccc54)cc(Cl)c3OCC2C2CC2)cc[nH]1 (stereo not shown) [Compound 231]
0.5 to 1 µM					CC1c2cc(-n3ccc4cc(F)ccc43)cc(Cl)c2OCCN1Cc1cc[nH]c(=O)c1 (stereo not shown) [Compound 235]
1 to 5 µM					Cc1c(-n2ccc3cc(F)ccc32)cc(Cl)c2c1CN(Cc1cc[nH]c(=O)c1)CCO2 [Compound 238]
1 to 5 µM					COCC1COc2c(Cl)cc(-n3ccc4cc(F)ccc43)cc2CN1Cc1cc[nH]c(=O)c1 (stereo not shown) [Compound 239]
> 5 µM					O=c1cc(CN2CCc3c(Cl)cc(-n4ccc5cc(F)ccc54)cc3C2)cc[nH]1 [Compound 240]
> 5 µM					O=c1cc(CN2CCOc3c(Cl)cc(-n4ccc5cc(F)ccc54)cc32)cc[nH]1 [Compound 241]
